Experimental data from patent US12478689B2, “Anti-CD19 antibody drug conjugates” (AbbVie Biotherapeutics Inc., priority 2022, dated 2025).
pEC50: −log10 of the molar value.

Key:
[1] = test system: RS4;11 tumors; test: ALL subcutaneous xenograft in CB17/SCID mice; assay type: in vivo; conditions: FIG. 11; fucosylated mAb and ADC-1 used; prednisolone [QD×5]×3; ADC-1 single low dose
Description: Food and water were available ad libitum.
Intraperitoneal route of administration was used.
Tumor volume was estimated one to two times weekly.

[2] = test system: RS4;11 (ALL); conditions: read-out: EC50 in vitro cytotoxicity (% cell viability), 5-day compound treatment, FIG. 1
[3] = test system: Farage, SU-DHL-6, OCI-LY19 cells; conditions: GRM 100 nM, ADC-1 1 μM; all 3 cell lines

Compound | Anti-tumor activity [1] | pEC50 [2] | Apoptosis (BIM, cleaved caspase-3, cleaved PARP) [3]
C[C@]12C=CC(=O)C=C1CC[C@@H]1[C@@H]2[C@@H](O)C[C@@]2(C)[C@H]1CC[C@]2(O)C(=O)CO [prednisolone, reference compound] | modest anti-tumor activity | 7.08 | 
C[C@@H]1C[C@H]2[C@@H]3CCC4=CC(=O)C=C[C@]4(C)[C@@]3(F)[C@@H](O)C[C@]2(C)[C@@]1(O)C(=O)CO [dexamethasone] |  | 8.48 | 
C[C@]12C=CC(=O)C=C1[C@@H](F)C[C@H]1[C@@H]3C[C@H]4O[C@@H](c5ccc(Cc6cccc(N)c6)cc5)O[C@@]4(C(=O)CO)[C@@]3(C)C[C@H](O)[C@@]12F [Compound of Formula IV, (2S,6aS,6bR,7S,8aS,8bS,10R,11aR,12aS,12bS)-10-(4-(3-Aminobenzyl)phenyl)-2,6b-difluoro-7-hydroxy-8b-(2-hydroxyacetyl)-6a,8a-dimethyl-1,2,6a,6b,7,8,8a,8b,11a,12,12a,12b-dodecahydro-4H-naphtho[2′,1′:4,5]indeno[1,2-d][1,3]dioxol-4-one] |  |  | induced apoptosis
